What was measured:
[1] = test system: C. albicans strain (CA-6); test: In vitro candidacidal CFU assay; assay type: cell-based, Candida albicans; conditions: 100 µg/ml, CA-6 cells
Description: The origin and characteristics of the highly virulent C. albicans strain (CA-6) used in this study have been previously described. The culture was maintained by serial passages on Sabouraud agar (BioMérieux, Lyon, France). The yeast cells were harvested by suspending a single colony in saline, washed twice, counted in a hemocytometer and adjusted to the desired concentration.
The in vitro activity against CA-6 cells of mAb MoA synthetic CDRs at the concentration of 100 µg/ml was evaluated by a conventional Colony Forming Unit (CFU) assay as described elsewhere.

TLR-4 [2] = test: TLR-4 protein Western blotting in PM; assay type: cell-based, mouse (Balb/c); conditions: PM 3×10^6/ml, 10 µg/ml, 1 and 3 h, Western blot, n = 5
Description: (§1) After incubation, cells were washed and lysated with Mammalian protein extraction reagent (M-PER) in the presence of protease and phosphatase inhibitors (all from Pierce, Rockford, IL). Protein concentration was determined with a BCA protein Assay Reagent kit (Pierce). The lysates (30 µg of each sample) were separated by sodium dodecyl-sulfate-10% PAGE, transferred to a nitrocellulose membrane (Pierce) for 1 h at 100 V in a blotting system (Bio-Rad) for Western Blot analysis, and the membranes were incubated over-night with rabbit polyclonal Abs to phospho-Akt (pAkt; dilution 1/1000), phospho-IkBα (pIkBα; dilution 1/1000) (all from Cell Signalling Technology, Beverly, MA) and rabbit polyclonal Ab to TLR-4 (dilution 1/200) (Santa Cruz Biotechnology Inc.) in blocking buffer. […] Immunoreactive bands were visualized and quantified by Chemidoc Instrument (Bio-Rad). In particular, a quantitative analysis of the region of interest drawn around the outer edge of the band, was performed based on the guidelines for the use of the Chemidoc Instrument (Bio-Rad). […] All the parallelograms that form a band create one unique three-dimensional solid structure on which the volume is calculated. […]

C. albicans (CA-6) = test: Therapeutic activity against systemic candidiasis in mice; assay type: in vivo, Balb/c mice; conditions: 200 µg i.p. 4 h before, 100 µg 1 and 2 days after infection
Description: Female, 8–10 weeks old, inbred Balb/c mice were obtained from Harlan Nossan Laboratories (Milan, Italy) and housed at the Animal Facilities of the University of Perugia, Perugia, Italy. Procedures involving animals and their care were conducted in conformity with national and international laws and policies.
Groups of 7 Balb/c mice were infected intravenously with 5×10^5 or 7.5×10^5 CA-6 cells suspended in 0.5 ml saline for evaluation of fungal clearance or mice survival, respectively.
Infected animals were given 200 µg of mouse VLCDR3 or VHCDR3 peptides intraperitoneally 4 h before infection, and 100 µg 1 and 2 days after infection for a total of 400 µg/mouse. Untreated animals served as a NC. Quantification of fungal growth at 5, 7, and 12 days after infection was assessed by plating serial dilutions of kidney homogenates onto Sabouraud agar. Animal survival was monitored for 30 days after infection.

TLR-4 [3] = test: TLR-4 expression in PM (flow cytometry); assay type: cell-based, mouse (Balb/c); conditions: PM 1×10^6/ml, 10 µg/ml, 1 h, RPE-labelled mAb to TLR-4, FACScan, representative experiment out of five
Excerpt: Data are reported as percentage of positive cells. […] Data are expressed as percentage of positive cells.

IkBα = test: Phospho-IkBα Western blotting in PM; assay type: cell-based, mouse (Balb/c); conditions: 1 h, n = 5
Description: as §1

PM = test: Uptake of biotin-labelled peptide by PM (flow cytometry); conditions: 10 µg/ml, 37°C, FACScan, n = 7
murine splenocytes = test: Cytokine production by unfractionated spleen cells (ELISA); assay type: cell-based, mouse (Balb/c); conditions: 10 µg/ml, 18 h, 10×10^6 cells/ml, ELISA of supernatants, data not shown
Description: (§2) Unfractionated spleen cells (10×10^6/ml), recovered from Balb/c mice, were cultured in the presence or absence of mAb HuA and mAb MoA CDR peptides, LPS or NC (all 10 µg/ml) for 18 h in RPMI-1640 plus 10% FCS (complete medium) at 37°C and 5% CO2. After incubation, the supernatants were collected and tested for TNF-α and IL-6 levels by specific ELISA assays (Biosource, Camarillo, CA, USA). In selected experiments, PM (5×10^6/ml) were cultured as above described. After incubation, the supernatants were collected and tested for TNF-α and IL-6 levels by specific ELISA assays (Biosource). PM (5×10^6/ml) were cultured in the presence or absence of mouse VHCDR3, LPS, NC or SP (all at 10 µg/ml) for 1 or 18 h in complete medium at 37°C and 5% CO2. PM (5×10^6/ml) were cultured as above described in the presence or absence of wortmannin (4 nM) or SB203580 (0,2 µM) (both from Sigma). After incubation, the supernatants were collected and tested for TNF-α level by specific ELISA assays (Biosource). In selected experiments, PM (5×10^6/ml) were cultured in the presence or absence of VHCDR3, LPS, NC, SP and nine VHCDR3 alanine-substituted derivatives (all at 10 µg/ml) for 18 h in complete medium at 37°C and 5% CO2. After incubation, the supernatants were collected and tested for TNF-α level by specific ELISA assays (Biosource). PMN (5×10^6/ml) were cultured in the presence or absence of mAb MoA CDR peptides, LPS or NC (all 10 µg/ml) for 18 h in complete medium at 37°C and 5% CO2. After incubation, the supernatants were collected and tested for TNF-α and IL-6 levels by specific ELISA assays (Biosource). Cytokine titers were calculated by reference to standard curves, constructed with known amounts of recombinant cytokines.

Akt = test: Phospho-Akt Western blotting in PM; assay type: cell-based, mouse (Balb/c); conditions: PM 3×10^6/ml, 10 µg/ml, 1 h, Western blot, with respect to NC and SP, n = 5
Description: as §1

TLR-4 gene = TLR-4 gene expression in PM (quantitative RT-PCR); assay type: cell-based, mouse (Balb/c); conditions: PM 1×10^6/ml, 10 µg/ml, qPCR normalized against GADPH, n = 5
Description: (§3) After incubation, cells were lysed using Trizol reagent (Invitrogen, Carlsbad, CA), and total RNA was extracted. The reverse transcriptase (RT) reaction was performed using Moloney murine leukaemia virus reverse transcriptase (M-MLV RT), as described in the manufacturer's instructions (Invitrogen).
(§4) TNF-α, TLR-4, and GADPH clones for use as standards were prepared by PCR from cDNA derived from PM and cloned into p-Drive vector (Qiagen, S.p.A., Milano, Italy). These were verified by sequence analysis. Plasmid DNA was diluted 10-fold and the starting concentration for the dilution series was 10^8 gene copies/µl.
(§5) For each target gene, primers were selected using the Beacon Designer software (Bio-Rad, Hercules, CA). Real-time RT-PCR (quantitative RT-PCR) was performed in 96-well PCR plates using the SYBR green (all from BioRad). For real-time PCR reaction 100 ng/µl of reverse-transcribed RNA was used and cDNA was normalized according to GADPH as an internal NC gene. Amplification conditions were the same for TNF-α, TLR-4 and GADPH mRNAs assayed: 3 min at 95°C, 40 cycles of 10 s at 95°C and 30 s at 62°C. For the Melt Curve, the amplification condition was: 1 min at 50°C and 90 cycles of 10 s at 50°C. The experiments were performed using the iCycler IQ Multicolor Real-time PCR Detection System (BioRad).

[4] = test system: peritoneal murine macrophages (PM); test: Cytokine production by peritoneal macrophages (ELISA); assay type: cell-based, mouse (Balb/c); conditions: for TNF-α production by PM / IL-6 production by PM: 18 h, P<0.05 vs untreated; for reduction of TNF-α production induced by LPS / reduction of TNF-α production induced by VHCDR3: PM 5×10^6/ml, wortmannin 4 nM or SB203580 0,2 µM; for reduction of TNF-α production induced by LPS: LPS 10 µg/ml; for reduction of TNF-α production induced by VHCDR3: VHCDR3 10 µg/ml
Description: DC and CD4^+ T cells were separated from spleens of inbred Balb/c mice using N-418 or L3T4 mAb-conjugated MicroBeads (Miltenyi Biotec, Bergisch Gladbach, Germany), and magnetic separation was performed according to the manufacturer's instruction. Peritoneal murine neutrophils (PMN) and macrophages (PM) were collected 18 h or 4 days, respectively, after the intraperitoneal injection of 1 ml endotoxin-free 10% thioglycolate solution (Difco).
as §2

TNF-α gene = TNF-α gene expression in PM (quantitative RT-PCR); assay type: cell-based, mouse (Balb/c); conditions: PM 1×10^6/ml, 10 µg/ml, qPCR normalized against GADPH, n = 5
Description: as §3, §4, §5

[5] = test system: C. albicans strain (CA-6); conditions: previously proven; ref [8], [16]; cited from earlier work
Excerpt: The CDRs of human mAb HuA (IgM) and mouse mAb MoA (IgM) specific for the difucosyl human blood group A substance, were chemically synthesized on the basis of the previously described sequences of VH and VL chain [21]. An irrelevant synthetic decapeptide (MSTAVSKCAT), previously proven to be devoid of either candidacidal or immunomodulatory activity, was used as a negative control (NC), [16]. In selected experiments, a scramble peptide (SP) (YYWLQGGFAN) and nine VHCDR3 alanine-substituted derivatives were used for control of specificity and evalua ...

[6] = 10 µg/ml, 5×10^6 cells/ml, n = 7

| Compound | Percentage of TLR-4 positive cells (TLR-4 [3]) | IL-6 production by splenocytes (murine splenocytes) | TNF-α production by splenocytes (murine splenocytes) | TLR-4 gene expression, 1 h (TLR-4 gene) | TNF-α production by PM ([4]; 10 µg/ml, 5×10^6 cells/ml) | IL-6 production by PM [4, 6] | TNF-α gene expression, 1 and 6 h (TNF-α gene) | reduction of TNF-α production induced by LPS [4] [%] | reduction of TNF-α production induced by VHCDR3 [4] [%] | also measured |
| --- | --- | --- | --- | --- | --- | --- | --- | --- | --- | --- |
| GQYGNLWFAY [VHCDR3] | significant increase | increased production | increased production | significant increase | significant up-regulation | significant up-regulation | significant increase | – | – | candidacidal effect in vitro [1]: ineffective; TLR-4 protein (normalized against actin) (TLR-4 [2]): significant up-regulation; CFU recovery from kidneys (C. albicans (CA-6); 5×10^5 CA-6 cells i.v., 5, 7 and 12 days after infection, n = 7): impressive decrease; survival of infected mice (C. albicans (CA-6); 7.5×10^5 CA-6 cells i.v., 30 days, vs untreated or VLCDR3-treated, Log rank P<0.05, n = 7): significant increase in survival; Percentage of TLR-4 positive cells (TLR-4 [3]; listed as VH CDR3): 38.1; IkBα phosphorylation (pIkBα normalized against IkBα) (IkBα; PM 3×10^6/ml, 10 µg/ml, Western blot, compared to NC): increased activation of pIkBα; kinetics of uptake by PM (MFI and percentage of positive cells), 6 and 18 h (PM; 6 and 18 h incubation): persisted; kinetics of uptake by PM (MFI and percentage of positive cells), 1 h (PM; 1 h incubation): high level; kinetics of uptake by PM (MFI and percentage of positive cells), 72 h (PM; 72 h incubation): negligible levels; Akt phosphorylation (pAkt normalized against Akt) (Akt): increased activation of pAkt; TLR-4 gene expression, 6 h (TLR-4 gene; 6 h): declined; TNF-α production by PM after 1 h ([4]; 10 µg/ml, 1 h, 5×10^6 cells/ml, n = 7): significant increase; TNF-α gene expression, 18 h (TNF-α gene; 18 h): rapid decline of gene expression |
| C[S+]([O-])c1ccc(-c2nc(-c3ccncc3)c(-c3ccc(F)cc3)[nH]2)cc1 (centres unmarked) [SB203580] | – | – | – | – | – | – | – | 28 | 21 | – |
| QQRSNWPRS [mAb HuA VLCDR3, synthetic VLCDR3 of human mAb HuA] | – | significant up-regulation | – | – | – | significant up-regulation | – | – | – | – |
| COC[C@H]1OC(=O)c2coc3c2[C@@]1(C)C1=C(C3=O)[C@@H]2CCC(=O)[C@@]2(C)C[C@H]1OC(C)=O [wortmannin] | – | – | – | – | – | – | – | 39 | 28 | effect on VHCDR3-induced IkBα phosphorylation (IkBα; PM, wortmannin 4 nM with VHCDR3 10 µg/ml): significantly reduced |
| MSTAVSKCAT [NC, irrelevant synthetic decapeptide used as a negative control, reference compound] | 24.1 | did not affect cytokine production | did not affect cytokine production | No activation | did not stimulate cytokine production | did not stimulate cytokine production | inability | – | – | candidacidal or immunomodulatory activity [5]: devoid |
